One assay has as its target T1, EP4 receptor (PTGER4) (Homo sapiens, UniProt P35408).
T1 construct: expressed in transfected cells; host or cells: PathHunter β-Arrestin PTGER4 (EP4) cell line
Description: PathHunter β-Arrestin PTGER4 (EP4) antagonist assay against GP1681 at EC80. It counts as cell-based. Conditions: for inhibition of GP1681 activity, in words: standard 10 μM top concentration. How it is done: This Example describes antagonist assay experiments performed with known EP4 receptor inhibitors. Agonist controls and antagonist binding studies were performed in the PathHunter® β-Arrestin PTGER4 (EP4) cell lines. The PathHunter® β-Arrestin assay monitors activation by bound ligands of a GPCR in a homogenous, non-imaging assay format using Enzyme Fragment Complementation (EFC) with β-galactosidase (β-Gal) as the functional reporter. A fresh 10 mM working stock of GP1681 was created in the vehicle (1×PBS, pH 7.4). Prior to setting up the GP1681-antagonist assays, the parameters of the GP1681 agonist assay were optimized for most efficient cellular activation and expression of the reporter molecule via GP1681 receptor (PTGER4) binding. Two different cell densities (5K vs 7.5K) and incubation temperatures (room temperature and 37 C) were evaluated in standard agonist format. […] Vehicle only controls (1×PBS, pH 7.4) were also included for each receptor cell line. Receptor binding activity was analyzed using CBIS data analysis suite (ChemInnovation Software, Inc., San Diego, CA, USA).
The percentage of activity was calculated using the following formula: % Activity=100%×(mean RLU of test sample−mean RLU of vehicle control)/(mean MAX control ligand−mean RLU of vehicle control). Dose curves were performed and EC50 values determined. In all rows, the assay was Arrestin, the assay target was PTGER4, and the result type was EC50 for all agonists, and IC50 for all antagonists. NI indicates no inhibition, N is number of replicates, K is cell density, and RT is room temperature.
All antagonist assays were carried out in duplicate with 10 individual concentrations of one of six antagonist compounds (commercially available from Cayman Chemical; Ann Arbor, MI, USA). […] For antagonist assays, data was normalized to the maximal and minimal response observed in the presence of EC80 ligand and vehicle. A three-fold dilution series of each compound was established with a parameters). […] Incubation was at 37° C. for 90-180 minutes after which cell wells were processed for signal detection. Microplates were read following signal generation with a PerkinElmer Envision™ instrument (Waltham, MA, USA) for chemiluminescent signal detection. Vehicle only controls (PBS, pH 7.4) were also included for each antagonist run. Receptor binding activity was analyzed using CBIS data analysis suite (ChemInnovation, CA, USA). […] Percentage inhibition was calculated using the following formula: % Inhibition=100%×(1−(mean RLU of test sample−mean RLU of vehicle control)/(mean RLU of EC80 control−mean RLU of vehicle control)). […] This molecule was included as a control molecule for Eurofins work.

The target of a further assay is T2, EP1 receptor (PTGER1) (Homo sapiens, UniProt P34995).
T2 construct: host or cells: PathHunter beta-arrestin cell line
T2 sequence (P34995 1-402): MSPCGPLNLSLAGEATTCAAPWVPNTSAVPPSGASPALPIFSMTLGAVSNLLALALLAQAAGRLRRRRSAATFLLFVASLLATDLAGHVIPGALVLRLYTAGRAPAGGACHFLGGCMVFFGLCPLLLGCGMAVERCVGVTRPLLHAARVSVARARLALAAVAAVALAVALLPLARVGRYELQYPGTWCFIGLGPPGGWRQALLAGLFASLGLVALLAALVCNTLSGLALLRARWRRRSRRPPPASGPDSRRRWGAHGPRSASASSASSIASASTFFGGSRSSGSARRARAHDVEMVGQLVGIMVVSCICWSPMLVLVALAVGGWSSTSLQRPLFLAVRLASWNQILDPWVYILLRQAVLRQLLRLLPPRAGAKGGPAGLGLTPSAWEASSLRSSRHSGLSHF
Description: PathHunter beta-arrestin cell-based prostanoid receptor assay, EP1. Conditions: β-Arrestin. How it is done:
(§1) DiscoverX cell-based ligand binding assays were performed in the PathHunter beta-arrestin (EP1, EP2, EP3, EP4, FP, IP, and TP receptors) or cAMP Hunter™ (DP receptor) cell lines.
(§2) Receptor binding studies were performed in either the PathHunter® b-Arrestin (EP1, EP2, EP3, EP4, FP, IP, and TP receptors) or cAMP Hunter™ (DP receptor) cell lines. A 10 mM working stock of GP1681 was created in 1×PBS, pH 7.4. All assays were carried out in duplicate with 10 individual concentrations of GP1681. A three-fold dilution series of GP1681 was established for the initial or pilot experiment with a starting concentration of 4 uM (starting concentration was chosen based on previous Gemmus Pharma preclinical experimental results).
(§3) GP1681 was incubated with cells lines at either 37° C. or room temperature, for 90-180 minutes (temperatures and incubation times are all dependent on established optimized procedures for each receptor cell line) after which cell wells were processed and signal production detected. […] Vehicle only controls (PBS, pH 7.4) were also included for each receptor cell line. Receptor binding activity was analyzed using CBIS data analysis suite (ChemInnovation, CA). The percentage of activity was calculated using the following formula: % Activity=100%×(mean RLU of test sample−mean RLU of vehicle control)/(mean MAX control ligand−mean RLU of vehicle control). Dose curves were performed and EC50 values determined.
(§4) The four assays were repeated with a higher starting concentration.
(§5) The second experimental run of the receptor binding assay was performed with these last four cell lines including GP1681 and their respective positive and negative (vehicle, PBS pH 7.4) controls. A 10 mM GP1681 working stock was again created in 1×PBS, pH 7.4. A three-fold serial dilution scheme was again used for GP1681 samples, starting this time at a concentration of 500 μM. The remainder of the second experimental run was performed in the same manner as run 1.

The next assay concerns the target T3, TP receptor (TBAX2R) (Homo sapiens, UniProt P21731).
T3 construct: host or cells: PathHunter beta-arrestin cell line
T3 sequence (P21731 1-343): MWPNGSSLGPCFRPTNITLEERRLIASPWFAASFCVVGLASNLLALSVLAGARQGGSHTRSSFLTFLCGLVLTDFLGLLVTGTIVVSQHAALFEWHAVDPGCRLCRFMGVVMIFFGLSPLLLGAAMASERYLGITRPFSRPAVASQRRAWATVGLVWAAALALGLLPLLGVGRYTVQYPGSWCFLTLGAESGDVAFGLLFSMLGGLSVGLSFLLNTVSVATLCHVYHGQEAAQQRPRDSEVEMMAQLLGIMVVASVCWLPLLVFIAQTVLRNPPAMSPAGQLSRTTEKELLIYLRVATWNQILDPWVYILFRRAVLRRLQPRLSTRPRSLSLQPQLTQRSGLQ
The assay is described as follows: PathHunter beta-arrestin cell-based prostanoid receptor assay, TP. Conditions: Run 1, GP1681 starting concentration 4 uM; β-Arrestin. The method, then: as §1, §2, §3

In another assay the target is T4, DP1 receptor (PTGDR) (Homo sapiens, UniProt Q13258).
T4 construct: host or cells: cAMP Hunter (DP receptor) cell line
T4 sequence (Q13258 1-359): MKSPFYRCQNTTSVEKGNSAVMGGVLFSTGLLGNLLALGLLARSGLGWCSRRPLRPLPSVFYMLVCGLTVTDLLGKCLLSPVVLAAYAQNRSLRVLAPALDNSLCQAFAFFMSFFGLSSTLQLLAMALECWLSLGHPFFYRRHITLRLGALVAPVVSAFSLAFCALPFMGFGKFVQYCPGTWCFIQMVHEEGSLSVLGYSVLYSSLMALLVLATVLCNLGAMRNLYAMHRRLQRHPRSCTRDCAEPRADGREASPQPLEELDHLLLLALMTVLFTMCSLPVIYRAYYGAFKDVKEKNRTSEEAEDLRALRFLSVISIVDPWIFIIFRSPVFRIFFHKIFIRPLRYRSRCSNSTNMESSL
Description: cAMP Hunter cell-based prostanoid receptor assay, DP receptor. To be noted: HitHunter cAMP cell line. How it is done: as §1, §2, §3, §4, §5

A further assay addresses T5, IP receptor (PTGIR) (Homo sapiens, UniProt P43119).
T5 construct: host or cells: PathHunter beta-arrestin cell line
The assay is described as follows: PathHunter beta-arrestin cell-based prostanoid receptor assay, IP. How it is done:
as §1, §2, §3

Where [1] appears, read: 5K 37C, GP1681 at EC80, read-out: IC50 for competitive inhibition of GP1681.
[2] abbreviates: 5K 37C, challenge with GP1681 at EC80 (45 μM), read-out: RC50 (μM) / IC50, antagonist.
Where [3] appears, read: Run 1, GP1681 starting concentration 4 uM, curve for GP1681 not fully sigmoidal.
The mark [4] stands for this setting: Run 2, GP1681 starting concentration 500 μM.

Nine molecules from US12042503B2, “Compositions and methods for treating coronavirus infections” (priority 2020, dated 2024) can be followed below.

Where “and” joins values, the source holds several entries; their conditions need not be identical. Identical values can stand only once. Counter-ions that a name gives are not always drawn. Like-named read-outs stand apart in the source and are kept apart here. A value given as a limit tells only on which side of the number the result lay.

T1 sequence (P35408 whole entry): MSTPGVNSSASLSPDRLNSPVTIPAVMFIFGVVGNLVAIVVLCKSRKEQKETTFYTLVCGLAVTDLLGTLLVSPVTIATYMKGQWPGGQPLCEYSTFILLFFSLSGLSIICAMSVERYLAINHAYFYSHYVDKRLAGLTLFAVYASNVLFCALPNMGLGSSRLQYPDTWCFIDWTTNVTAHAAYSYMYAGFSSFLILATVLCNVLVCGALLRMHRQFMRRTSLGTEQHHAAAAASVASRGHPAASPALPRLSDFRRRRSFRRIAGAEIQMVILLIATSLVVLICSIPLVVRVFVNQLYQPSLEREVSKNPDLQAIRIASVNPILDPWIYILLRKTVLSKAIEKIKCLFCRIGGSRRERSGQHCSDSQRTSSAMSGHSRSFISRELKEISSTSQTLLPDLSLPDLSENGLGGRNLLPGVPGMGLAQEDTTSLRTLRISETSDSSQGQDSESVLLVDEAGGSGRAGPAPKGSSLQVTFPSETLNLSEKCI
T5 sequence (P43119 whole entry): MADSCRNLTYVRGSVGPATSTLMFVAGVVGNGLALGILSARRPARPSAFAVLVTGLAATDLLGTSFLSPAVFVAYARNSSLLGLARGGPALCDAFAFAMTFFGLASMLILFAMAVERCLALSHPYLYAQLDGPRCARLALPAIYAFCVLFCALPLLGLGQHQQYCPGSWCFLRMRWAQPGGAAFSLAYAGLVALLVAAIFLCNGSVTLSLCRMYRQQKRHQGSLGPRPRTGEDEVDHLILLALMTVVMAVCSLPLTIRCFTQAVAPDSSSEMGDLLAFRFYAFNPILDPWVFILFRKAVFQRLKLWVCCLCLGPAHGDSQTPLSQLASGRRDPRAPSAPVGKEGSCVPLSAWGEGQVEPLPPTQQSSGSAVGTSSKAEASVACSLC

Consider `CCCCc1nn(-c2ccccc2C(F)(F)F)c(=O)n1Cc1ccc(-c2ccccc2S(=O)(=O)NC(=O)c2sccc2C)cc1` [L-161,982], for which the IC50 at EP4 receptor (PTGER4) (setting [1]) and on EP4 receptor (PTGER4) (setting [2]) was 0.0339 µM in each case.

What is called EC50 is the concentration giving half of the maximal effect. A lower EC50 goes with greater potency. Take `CCCCC[C@H](O)/C=C/[C@H]1[C@H](O)CC(=O)[C@@H]1C/C=C\CCCC(=O)O` [PGE2, Prostaglandin E2, reference compound]: the EC50 came to 4.9 nM at EP1 receptor (PTGER1) (setting [3]) and 6.3 nM on EP1 receptor (PTGER1) (setting [4]).

Molecule `O=C(O)CCC/C=C\C[C@@H]1[C@@H](/C=C/[C@@H](O)COc2ccc(I)cc2)[C@H]2CC[C@@H]1O2` [I-BOP, reference compound] came in with an EC50 at TP receptor (TBAX2R) of 32 nM.

On to `O=C(O)CC/C=C\CC[C@H]1[C@H](N2CCOCC2)C(=O)C[C@H]1OCc1ccc(-c2ccccc2)cc1` [AH 23848 (Ca salt)], for which the IC50 at EP4 receptor (PTGER4) (setting [2]) is over 10 µM. Further, at EP4 receptor (PTGER4) (GP1681 at EC80), the “inhibition of GP1681 activity, in words” value was “did not inhibit GP1681”.

Regarding `CCOc1c2c(c(OCC)c3ccccc13)C(=O)N(c1ccc(CC(=O)NS(=O)(=O)c3ccccc3)cc1)C2` [GW 627368X], the IC50 on EP4 receptor (PTGER4) (setting [1]) and at EP4 receptor (PTGER4) (setting [2]) was 0.0442 µM each time.

In the case of `CCCCC[C@H](O)/C=C/[C@H]1C(=O)C[C@H](O)[C@@H]1C/C=C\CCCC(=O)O` [PDG2, PGD2, reference compound], the values for the EC50 on DP1 receptor (PTGDR) (setting [3]) and on DP1 receptor (PTGDR) (setting [4]) were 2.2 nM and 1.2 nM, respectively.

For the molecule `CCCCCC(O)CCC1CCC(=O)N1CCCCCCC(=O)O` (stereo not drawn) [CAY10580], the IC50 at EP4 receptor (PTGER4) (setting [2]) was over 10 µM. Moreover, the “complementary activity in antagonist assay, in words” value at EP4 receptor (PTGER4) (only at 3 and 10 μM concentrations) is “low level of complementary activity”. Besides, the “inhibition of GP1681 activity, in words” value at EP4 receptor (PTGER4) (GP1681 at EC80) was “did not inhibit activity of GP1681”.

As for `CC#CCC(C)C(O)C=CC1C(O)CC2Oc3c(CCCC(=O)O)cccc3C21` (racemic) [Beraprost, 2,3,3a,8b-tetrahydro-2-hydroxyl-1-(3-hydroxyl-4-methyl-1-octen-6-ynyl)-1H-cyclopenta[b]benzofuran-5-butanoic acid, sodium salt], the midpoint of the response on IP receptor (PTGIR), the EC50, lay at 436 nM. The “fold lower affinity as compared to GP1681 for the IP receptor” value at IP receptor (PTGIR) (ratio of EC50 values) is given as “about 4 fold”.

`CCc1nc2c(C)nc(C)cc2n1-c1ccc(CCNC(=O)NS(=O)(=O)c2ccc(C)cc2)cc1` [CJ-023423]: the IC50 at EP4 receptor (PTGER4) (IC50 for competitive inhibition of GP1681, 5K 37C, GP1681 at EC80) is 0.0265 µM; against EP4 receptor (PTGER4) (RC50 (μM) / IC50, antagonist, 5K 37C, challenge with GP1681 at EC80 (45 μM)), 0.0265 µM and 0.0266 µM.
